The source of these data is US11578343B2, “CAS9 proteins including ligand-dependent inteins” (President and Fellows of Harvard College, priority 2014, dated 2023).

What all share (assay type): cell-based, human
Data set [1] relates to genomic EGFP locus. The data set can be described thus: Genomic EGFP disruption in HEK293-GFP stable cells (loss of GFP by flow cytometry). The following applies: for Loss of GFP expression / nuclease activity, in words: with or without 1 μM 4-HT, FIG. 3c. As for the experimental part: HEK293-GFP stable cells were transfected with the Cas9 expression plasmid, a gRNA (targeting Emerald GFP; Guilinger et al., Nature Biotechnology (2014)), and iRFP670 (transfection control), using Lipofectamine 2000. Twelve hours after transfection, media, either containing 4-HT (1 μM) or without 4-HT, was added.
Five days after transfection, cells were trypsinized and analyzed on a flow cytometer. Cells lacking GFP indicated genome modification. Cas9 variants that induced minimal genome modification in the absence of 4-HT but induce significant genome modification in the presence of 4-HT were deemed small-molecule-regulated variants in this Example.
Additionally, a time course was performed in which incubation with 4-HT was limited to 2, 4, 8, 12 or 24 hours, after which point the media was replaced.
We genetically inserted the 4-HT-dependent intein at each of fifteen positions in Cas9 (Cys80, Ala127, Thr146, Ser219, Thr333, Thr519, Cys574, Thr622, Ser701, Ala728, Thr995, Ser1006, Ser1154, Ser1159, and Ser1274), chosen to distribute the location of the intein across the structural domains of Cas9^23 (FIG. 3b and Example 1). Because intein splicing leaves behind a single Cys residue, the intein was inserted in place of one Cas9 amino acid in each of the 15 candidate constructs. In addition to replacing natural Cys amino acids, we also favored replacing Ala, Ser, or Thr residues to minimize the likelihood that the resulting Cys point mutation resulting from protein splicing would disrupt Cas9 activity. The 15 intein-Cas9 candidates were expressed in HEK293-GFP cells together with a sgRNA that targets the genomic EGFP locus in these cells. Twelve hours post-transfection, cells were treated with or without 1 μM 4-HT. Five days post-transfection, cells were analyzed on a flow cytometer for loss of GFP expression from Cas9-mediated EGFP cleavage and subsequent non-homologous end joining.
Modification of genomic GFP. HEK293-GFP stable cells (GenTarget), which constitutively express Emerald GFP, served as the reporter cell line. Cells were maintained in “full serum media”: Dulbecco's Modified Eagle's Media plus GlutaMax (Life Technologies) with 10% (vol/vol) FBS and penicillin/streptomycin (1×, Amresco). 5×10^4 cells were plated on 48-well collagen-coated Biocoat plates (Becton Dickinson). 16-18 h after plating, cells were transfected with Lipofectamine 2000 (Life Technologies) according to the manufacturer's protocol. Briefly, 1.5 μL of Lipofectamine 2000 was used to transfect 650 ng of total plasmid: 500 ng Cas9 expression plasmid, 125 ng sgRNA expression plasmid, and 25 ng near-infrared iRFP670 expressing plasmid (Addgene plasmid 45457)^26. 12 h after transfection, the media was replaced with full serum media, with or without 4-HT (1 μM, Sigma-Aldrich T176). The media was replaced again 3-4 days after transfection. Five days after transfection, cells were trypsinized and resuspended in full serum media and analyzed on a C6 flow cytometer (Accuri) with a 488-nm laser excitation and 520-nm filter with a 20-nm band pass. Transfections and flow cytometry measurements were performed in triplicate.
For orientation: In flow cytometry, cells or beads pass a laser one at a time.

The test system of data set [2] is genomic EGFP locus. The data set is described as above. The conditions noted are these: FIG. 12.
Another data set deals with HEK293-GFP stable cells. The data set can be described thus: Effect of 4-HT on cellular toxicity (live cell population, TO-PRO-3 stain, flow cytometry). The conditions noted are these: 12 or 60 h of treatment with 1 μM 4-HT; untransfected or transfected HEK293 cells; FIG. 5. As to the method:
FIG. 5. Effect of 4-HT on cellular toxicity. Untransfected HEK293-GFP stable cells, and cells transfected with intein-Cas9(5219) and sgRNA expression plasmids, were treated with or without 4-HT (1 μM). 12 h after transfection, the media was replaced with full serum media, with or without 4-HT (1 μM). Cells were thus exposed to 4-HT for 0, 12, or 60 h. The live cell population was determined by flow cytometry 60 h after transfection using TO-PRO-3 stain (Life Technologies). Error bars reflect the standard deviation of six technical replicates.
We assayed these Cas9:sgRNA combinations in human cells for their ability to modify the three on-target loci as well as 11 known off-target genomic sites (Table 3)^4,5,10,13. Cells were treated with or without 1 μM 4-HT during transfection, and after 12 h the media was replaced with fresh media lacking 4-HT. […] Genomic DNA was isolated 60 h post-transfection and analyzed by high-throughput DNA sequencing

Where [3] appears, read: +4-HT (1 μM, added 12 h after transfection), five days after transfection, Table 1.
Where [4] appears, read: −4-HT, five days after transfection, Table 1.
[5] abbreviates: +4-HT 2 hrs, then media replaced, Table 2.
Where [6] appears, read: +4-HT 4 hrs, then media replaced, Table 2.
The mark [7] stands for this setting: +4-HT 8 hrs, then media replaced, Table 2.
Setting [8] is: +4-HT 12 hrs, then media replaced, Table 2.
Where [9] appears, read: +4-HT 24 hrs, then media replaced, Table 2.

As for “intein(Ser1154)-Cas9: Cas9 with 37R3-2 intein replacing Ser1154 (SEQ ID NO: 39)”, the entries for the “Cells without GFP (%)” value with genomic EGFP locus [1] (setting [3]) and in the data set on genomic EGFP locus [1] (setting [4]) were 41.94% and 21.14%, respectively. Besides, the “Loss of GFP expression / nuclease activity, in words” value with genomic EGFP locus [1] is “high DNA modification rates both in the presence and absence of 4-HT”.

Regarding “intein(Thr146)-Cas9: Cas9 with 37R3-2 intein replacing Thr146 (SEQ ID NO: 29)”, the “Cells without GFP (%)” value is on record as 16.29% with genomic EGFP locus [1] (setting [5]); 15.07% with genomic EGFP locus [1] (setting [6]); 13.65% in the data set with genomic EGFP locus [1] (setting [7]); 14.44% in the data set on genomic EGFP locus [1] (setting [8]); 19.57% with genomic EGFP locus [1] (setting [9]); 21.60% with genomic EGFP locus [1] (setting [3]). Besides, the “Cells without GFP (%)” value with genomic EGFP locus [1] (setting [4]) turned out to be 8.77%; with genomic EGFP locus [1] (−4-HT, time course, Table 2), 4.28%. Besides, the “Loss of GFP expression / nuclease activity, in words” value with genomic EGFP locus [1] is 4-HT-dependent loss of GFP expression.

As to “intein(Ala127)-Cas9: Cas9 with 37R3-2 intein replacing Ala127 (SEQ ID NO: 28)”, the “Cells without GFP (%)” value with genomic EGFP locus [1] (setting [5]) came out at 18.95%; in the data set with genomic EGFP locus [1] (setting [6]), 18.57%; in the data set with genomic EGFP locus [1] (setting [7]) it was 18.64%; in the data set on genomic EGFP locus [1] (setting [8]), 18.35%; in the data set with genomic EGFP locus [1] (setting [9]), 16.83%; in the data set on genomic EGFP locus [1] (setting [3]), 19.73%. Moreover, the “Cells without GFP (%)” value with genomic EGFP locus [1] (setting [4]) was determined as 7.97%; with genomic EGFP locus [1] (−4-HT, time course, Table 2) it was 5.03%. For the same substance, the “Loss of GFP expression / nuclease activity, in words” value in the data set on genomic EGFP locus [1] is 4-HT-dependent loss of GFP expression.

“intein(Ser1274)-Cas9: Cas9 with 37R3-2 intein replacing Ser1274 (SEQ ID NO: 41)”: the “Cells without GFP (%)” value came to 5.00% with genomic EGFP locus [1] (setting [3]) and 3.08% in the data set on genomic EGFP locus [1] (setting [4]). Moreover, in the data set on genomic EGFP locus [1], the “Loss of GFP expression / nuclease activity, in words” value was “lack of nuclease activity”.

Consider “intein(Thr995)-Cas9: Cas9 with 37R3-2 intein replacing Thr995 (SEQ ID NO: 37)”, for which the “Cells without GFP (%)” value was 21.39% in the data set with genomic EGFP locus [1] (setting [3]) and 14.95% in the data set on genomic EGFP locus [1] (setting [4]). Besides, the “Loss of GFP expression / nuclease activity, in words” value in the data set with genomic EGFP locus [1] is “high DNA modification rates both in the presence and absence of 4-HT”.

As for “intein(Ser1006)-Cas9: Cas9 with 37R3-2 intein replacing Ser1006 (SEQ ID NO: 38)”, the results for the “Cells without GFP (%)” value with genomic EGFP locus [1] (setting [3]) and in the data set on genomic EGFP locus [1] (setting [4]) were 12.61% and 6.80%, respectively. Also, the “Loss of GFP expression / nuclease activity, in words” value with genomic EGFP locus [1] is on record as 4-HT-dependent loss of GFP expression.

With “intein(Thr622)-Cas9: Cas9 with 37R3-2 intein replacing Thr622 (SEQ ID NO: 34)”, the “Cells without GFP (%)” value in the data set on genomic EGFP locus [1] (setting [3]) is given as 3.96%; in the data set with genomic EGFP locus [1] (setting [4]), 5.67%. Besides, the “Loss of GFP expression / nuclease activity, in words” value with genomic EGFP locus [1] is reported as “lack of nuclease activity”.

For the substance “intein-Cas9(5219-G521R): intein-Cas9(S219) with point mutation G521R in the estrogen receptor ligand-binding domain (probably SEQ ID NO: 166)”, the “Ability of β-estradiol to trigger Cas9 activity (genomic EGFP disruption)” value in the data set on genomic EGFP locus [2] is “eliminates the ability of β-estradiol to trigger Cas9 activity”.

Turning to “intein(Ser1159)-Cas9: Cas9 with 37R3-2 intein replacing Ser1159 (SEQ ID NO: 40)”, the “Cells without GFP (%)” value with genomic EGFP locus [1] (setting [3]) worked out at 13.21%; in the data set with genomic EGFP locus [1] (setting [4]), 5.65%. In addition, the “Loss of GFP expression / nuclease activity, in words” value with genomic EGFP locus [1] is given as 4-HT-dependent loss of GFP expression.

4-hydroxytamoxifen [4-HT]: the Cellular toxicity result in the data set on HEK293-GFP stable cells was “no cellular toxicity”.

Regarding “intein(Thr333)-Cas9: Cas9 with 37R3-2 intein replacing Thr333 (SEQ ID NO: 31)”, the entries for the “Cells without GFP (%)” value in the data set with genomic EGFP locus [1] (setting [3]) and in the data set with genomic EGFP locus [1] (setting [4]) were 9.17% and 4.96%, respectively. The “Loss of GFP expression / nuclease activity, in words” value in the data set with genomic EGFP locus [1] is 4-HT-dependent loss of GFP expression.

Consider “intein(Ser701)-Cas9: Cas9 with 37R3-2 intein replacing Ser701 (SEQ ID NO: 35)”, for which the entries for the “Cells without GFP (%)” value in the data set on genomic EGFP locus [1] (setting [3]) and with genomic EGFP locus [1] (setting [4]) were 9.56% and 6.54%, respectively. Further, in the data set on genomic EGFP locus [1], the “Loss of GFP expression / nuclease activity, in words” value is listed as “lack of nuclease activity”.

As to “intein(Ala728)-Cas9: Cas9 with 37R3-2 intein replacing Ala728 (SEQ ID NO: 36)”, the results for the “Cells without GFP (%)” value in the data set with genomic EGFP locus [1] (setting [3]) and in the data set with genomic EGFP locus [1] (setting [4]) were 41.89% and 20.82%, respectively. In the data set with genomic EGFP locus [1], the “Loss of GFP expression / nuclease activity, in words” value is “high DNA modification rates both in the presence and absence of 4-HT”.

Consider “intein(Thr519)-Cas9: Cas9 with 37R3-2 intein replacing Thr519 (SEQ ID NO: 32)”, for which the “Cells without GFP (%)” value is 14.55% with genomic EGFP locus [1] (setting [5]); 13.98% in the data set on genomic EGFP locus [1] (setting [6]); 14.74% in the data set on genomic EGFP locus [1] (setting [7]); 13.93% in the data set with genomic EGFP locus [1] (setting [8]); 18.04% in the data set on genomic EGFP locus [1] (setting [9]); 25.96% in the data set on genomic EGFP locus [1] (setting [3]). Further, the “Cells without GFP (%)” value in the data set on genomic EGFP locus [1] (setting [4]) was found to be 9.49%; in the data set with genomic EGFP locus [1] (−4-HT, time course, Table 2), 4.29%. Moreover, in the data set on genomic EGFP locus [1], the “Loss of GFP expression / nuclease activity, in words” value is recorded as 4-HT-dependent loss of GFP expression.

In the case of “intein(Cys80)-Cas9: Cas9 with 37R3-2 intein replacing Cys80 (SEQ ID NO: 27)”, the entries for the “Cells without GFP (%)” value with genomic EGFP locus [1] (setting [3]) and with genomic EGFP locus [1] (setting [4]) were 4.96% and 7.08%, respectively. In addition, the “Loss of GFP expression / nuclease activity, in words” value with genomic EGFP locus [1] is “lack of nuclease activity”.
